Measured values taken from US20250228873A1, “C25 R AND S ISOMERS OF AMINOSTEROLS AND METHODS OF MAKING AND USING THE SAME” (Enterin, Inc., priority 2022, published 2025).
Values joined by “and” are separate entries in the source; they are usually repeats but may differ in a detail not shown here. Equal entries are not always repeated. Where two headings read alike, the source gives them in different places.

Key:
[1] = target: T1, PTPN11/SHP2-FL (Homo sapiens, UniProt Q06124); assay: Phosphatase panel, DiFMUP assay with activating peptide
T1 sequence (Q06124 2-597 isoform Q06124-1): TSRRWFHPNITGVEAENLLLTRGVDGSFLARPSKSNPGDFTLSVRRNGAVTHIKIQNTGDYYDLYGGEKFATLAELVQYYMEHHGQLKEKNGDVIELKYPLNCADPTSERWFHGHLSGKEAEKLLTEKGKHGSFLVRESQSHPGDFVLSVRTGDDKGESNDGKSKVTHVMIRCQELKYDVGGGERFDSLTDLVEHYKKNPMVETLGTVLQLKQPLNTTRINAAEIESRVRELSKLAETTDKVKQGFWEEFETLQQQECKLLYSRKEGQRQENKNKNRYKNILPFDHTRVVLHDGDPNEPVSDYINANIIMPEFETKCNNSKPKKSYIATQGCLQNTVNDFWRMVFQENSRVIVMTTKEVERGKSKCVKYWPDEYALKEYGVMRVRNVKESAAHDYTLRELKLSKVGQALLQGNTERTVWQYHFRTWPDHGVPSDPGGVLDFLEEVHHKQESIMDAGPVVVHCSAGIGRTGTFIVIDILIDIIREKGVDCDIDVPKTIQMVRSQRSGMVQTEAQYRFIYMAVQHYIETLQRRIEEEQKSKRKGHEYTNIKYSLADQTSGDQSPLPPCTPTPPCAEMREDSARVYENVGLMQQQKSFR

[2] = Weight gain in growing male mice (about 25 grams); type: in vivo; conditions: similar dosing regimen, FIG. 2
Experimental: In a second experiment, growing male mice, about 25 grams, were administered either compound following a similar dosing regimen. As in the previous experiment, both compounds affected weight gain.

[3] = Pharmacokinetic profile, intravenous administration; type: in vivo, male SD Rats; conditions: I.V. 5 mg/kg, plasma; for MRT inf: read-out: MRTInf_obs
Experimental: The objective of this example was to determine the pharmacokinetic profile of ENT-03 (Compound III) via intravenous and oral administration in male SD Rats.
Animal feeding control: Animals were food fasted overnight prior to dosing and fed 4 hours after administration having free access to water.
PK Sample Analyses: Concentrations of ENT-03 (Compound III) in the plasma and dose samples were analyzed using a LC-MS/MS method. WinNonlin (Phoenix™, version 6.1) or other similar software was used for pharmacokinetic calculations. The following pharmacokinetic parameters were calculated, whenever possible from the plasma concentration versus time data.
IV Bolus administration: T1/2, C0, AUClast, AUCinf, MRTinf, Cl, Vss, Number of Points for Regression.
The pharmacokinetic data was described using descriptive statistics such as mean and standard deviation. All the residual biological samples were retained in the freezer ([…]) for a period of 6 months after testing.

[4] = Weight loss, i.p. once weekly over 6 weeks (FIG. 1C); type: in vivo, C57bl/6 male mice; conditions: intraperitoneal once weekly over 6 weeks
[5] = Weight loss in ad lib fed mice (about 50 grams), i.p. every other day; type: in vivo, male Swiss Webster mice; conditions: i.p. 10 mg/kg every other day, food ad lib
Description: Food was provided ad lib.
By 27 days both sets of treated mice had lost about 10% of their starting body weight.

[6] = target: Tyrosine-protein phosphatase non-receptor type 11 (Homo sapiens, UniProt Q06124); assay: Phosphatase panel, DiFMUP fluorescence assay; type: biochemical
Chain of Tyrosine-protein phosphatase non-receptor type 11 (Q06124 247-517): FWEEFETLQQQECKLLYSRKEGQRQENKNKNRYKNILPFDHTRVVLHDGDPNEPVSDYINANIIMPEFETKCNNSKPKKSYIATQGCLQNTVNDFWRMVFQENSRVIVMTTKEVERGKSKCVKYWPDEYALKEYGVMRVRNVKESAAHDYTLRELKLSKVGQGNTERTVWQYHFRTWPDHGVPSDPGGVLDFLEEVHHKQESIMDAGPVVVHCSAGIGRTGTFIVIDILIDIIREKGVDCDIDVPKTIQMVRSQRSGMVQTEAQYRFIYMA

[7] = target: T2, PTPN1/PTP1B (Homo sapiens, UniProt P18031); assay: PTP1B inhibition, fluorescence time-course, 10-dose IC50 (Example 2); type: biochemical
T2 construct: The enzyme was the human truncated form (1-321), recombinantly produced in Escherichia coli; host or cells: Escherichia coli
T2 sequence (P18031 1-321): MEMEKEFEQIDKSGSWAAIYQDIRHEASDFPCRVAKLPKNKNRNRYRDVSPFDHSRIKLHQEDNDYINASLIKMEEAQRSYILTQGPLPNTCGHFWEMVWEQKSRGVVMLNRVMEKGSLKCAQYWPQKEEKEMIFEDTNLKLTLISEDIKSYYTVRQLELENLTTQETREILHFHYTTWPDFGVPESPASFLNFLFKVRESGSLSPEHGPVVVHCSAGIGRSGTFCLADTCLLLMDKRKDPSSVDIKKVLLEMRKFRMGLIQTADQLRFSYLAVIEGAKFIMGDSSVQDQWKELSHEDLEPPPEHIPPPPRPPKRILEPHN

[8] = individual rats (Rat 1-3), listed as ENT-03 (Compound III), 5 mg/kg
[9] = male, SD, rat, iv, 5 mg/kg, Mean
[10] = male, SD, rat, iv, 5 mg/kg, individual rats (Rat 1-3)

SMILES: CC(CCC[C@@H](C)[C@H]1CCC2C3C(CC[C@@]21C)[C@@]1(C)CC[C@H](NCCCNCCCCN)C[C@@H]1C[C@H]3O)C(=O)O (single isomer, unassigned) [ENT-06]
- IC50 [1]: 3170 nM

SMILES: CC(CCC[C@@H](C)[C@H]1CCC2C3C(CC(O)[C@@]21C)[C@@]1(C)CC[C@H](NCCCNCCCCN)C[C@@H]1C[C@H]3O)C(=O)O (single isomer, unassigned) [ENT-05]
- IC50 [1]: 976 nM

SMILES: CC(CCC[C@@H](C)[C@H]1CCC2C3C(CC[C@@]21C)[C@@]1(C)CC[C@H](NCCCNCCCCNCCCN)C[C@@H]1C[C@H]3O)C(=O)O (single isomer, unassigned) [ENT-03]
- effect on growth / weight gain [2]: continued normal growth
- IC50 [1]: 1420 nM
- AUC_%Extrap_obs ([3]; Mean): 38.2%
- AUClast/D ([3]; Mean): 122000 h·ng/mL per mg/kg
- Cl_obs ([3]; Mean): 5.1 mL/h/kg
- Vss_obs ([3]; Mean): 0.125 L/kg
- AUCInf [3, 8]: 941.13 µg·h/mL and 1095.763 µg·h/mL
- AUC_%Extrap_obs [3, 8]: 39.6% and 35.4% and 39.7%
- AUClast [3, 8]: 608.321 µg·h/mL and 661.154 µg·h/mL
- AUClast/D [3, 8]: 112000 h·ng/mL per mg/kg and 122000 h·ng/mL per mg/kg and 132000 h·ng/mL per mg/kg
- C0 [3, 8]: 102.409 µg/mL and 76.2 µg/mL
- Cl_obs [3, 8]: 5.42 mL/h/kg and 5.31 mL/h/kg and 4.57 mL/h/kg
- MRTInf_obs [3, 8]: 22.9 h and 25.5 h
- T1/2 [3, 8]: 17.5 h and 18.6 h
- Vss_obs [3, 8]: 0.137 L/kg and 0.122 L/kg and 0.116 L/kg
- AUC(0-inf) [3, 9]: 986 µg·h/mL
- AUC(0-t) [3, 9]: 609 µg·h/mL
- half-life [3, 9]: 1090 min
- C0 ([3]; male, SD, rat, iv, 5 mg/kg, Mean, read-out: C0): 86.3 µg/mL
- MRT inf [3, 9]: 24.6 h
- AUC(0-inf) [3, 10]: 922 µg·h/mL
- AUC(0-t) [3, 10]: 558 µg·h/mL
- half-life [3, 10]: 1120 min
- C0 ([3]; male, SD, rat, iv, 5 mg/kg, individual rats (Rat 1-3), read-out: C0): 80.4 µg/mL
- MRT inf [3, 10]: 25.3 h
- clinical appearance other than weight loss [4]: appeared clinically normal
- effect on weight [4]: dose dependent weight loss
- effect on weight [5]: weight loss with kinetics similar to that seen following administration of ENT-02
- gradual recovery to the starting weight by [5]: ~45 days
- nadir of weight decrease [5]: ~16 days
- starting body weight lost by 27 days [5]: about 10%
- IC50 [6]: 5000 nM

SMILES: CC(C)[C@@H](CC[C@@H](C)[C@H]1CC[C@H]2[C@@H]3[C@H](O)C[C@H]4C[C@@H](NCCCNCCCCNCCCN)CC[C@]4(C)[C@H]3CC[C@]12C)OS(=O)(=O)O (single isomer, unassigned) [ENT-02 (MSI-1436), trodusquemine]
- effect on growth / weight gain [2]: suppressed growth as well as having induced consumption of body fat
- IC50 [1]: 752 nM
- Slope (signal/min) ([7]; Conc 1.00E−04 M): −68 signal/min
- Slope (signal/min) ([7]; Conc 1.11E−05 M): 292 signal/min
- Slope (signal/min) ([7]; Conc 1.23E−06 M): 37260 signal/min
- Slope (signal/min) ([7]; Conc 1.37E−07 M): 40137 signal/min
- Slope (signal/min) ([7]; Conc 1.52E−08 M): 44021 signal/min
- Slope (signal/min) ([7]; Conc 3.33E−05 M): −440 signal/min
- Slope (signal/min) ([7]; Conc 3.70E−06 M): 16431 signal/min
- Slope (signal/min) ([7]; Conc 4.12E−07 M): 39959 signal/min
- Slope (signal/min) ([7]; Conc 4.57E−08 M): 42717 signal/min
- Slope (signal/min) ([7]; Conc 5.08E−09 M): 43513 signal/min
- HILLSLOPE ([7]; Table 5A): −2.19
- effect on weight [5]: more severe decline
- IC50 [6]: 375 nM
